According to US8512748B2, “Controlled release system and method for manufacturing the same” (Boehringer Ingelheim International GmbH, priority 2006, dated 2013):

Assay: pH-dependent aqueous solubility of the active ingredient
Format: physicochemical

Compound: O=c1[nH]c2ccccc2n1CCN1CCN(c2cccc(C(F)(F)F)c2)CC1 [active ingredient, 1-[2-(4-(3-trifluoromethyl-phenyl)piperazin-1-yl)ethyl]-2,3-dihydro-1H-benzimidazol-2-one]
- solubility (pH 2): good solubility
- aqueous solubility (pH values 5.5-6.8): poor
